US20250339426A1, “GCN2 MODULATOR FOR TREATING CANCER” (HIBERCELL, INC., priority 2022, published 2025)

Experiments:
ATF4 = ATF4 activity assay (HEK293-ATF4-Luc, luciferase); assay type: cell-based; conditions: 12.5 nM Halofuginone, 6 hours, FIG. 3
Procedure: HEK293-ATF4-Luc cells were with culture medium 1.5e^5 cells/mL and 25 μL of cell suspension was added into each well of 384-well cell culture plate (Corning, CLS3570-50EA) as designated and transferred into 37° C.-5% CO2 incubator (Thermo Scientific) overnight for cell attachment. HC-7366 was serially diluted to 11 concentrations by 3-fold dilution in DMSO and 25 nL of stock was plated into cell plate by Echo550 (Labcyte, Echo550), then incubated for 30 minutes at 37° C. After HC-7366 treatment, cells were treated with either DMSO or 12.5 nM Halofuginone to activate GCN2 for 6 hours. After 6 hours, 25 μL of One-Glo reagent (Promega, cat #: E6120) was added into each well to be detected (at 1:1 to culture medium). Then the plates were placed at room temperature for 10 min followed by luciferase luminescence reading on EnVision (PerkinElmer). The data were analyzed by XLfit (v5.3.1.3), equation 201.

[1] = tested on: GCN2 pathway (p-GCN2, ATF4) in HT1080 cells; experiment: Western blot analysis of HT1080 cell lysates; assay type: cell-based, human; conditions: FIG. 5
Procedure: The HT1080 cells were harvested and counted and diluted to the desired density. 2 mL of cell suspension was added into each well of 6-well cell culture plate. The plates were transferred into 37° C., 5% CO2 incubator overnight. The cells were treated as described above. The media was aspirated, and cells were washed with ice cold phosphate buffered saline (PBS). Ice cold 1× radioimmunoprecipitation assay (RIPA) lysis buffer supplemented with protease and phosphatase inhibitors was added to the cell pellets, on ice. After 30 min on ice the cell lysates were centrifuged at 4° C., 12,000 rpm for 15 minutes and the supernatant collected. Protein concentration was determined using BCA kit. The cell lysates were mixed with 5× sodium dodecyl sulfate (SDS) loading buffer and denatured at 95° C. for 5 minutes. […] After the electrophoresis was completed, the separated protein was transferred to a nitrocellulose membrane using transblot system for 90 min, 300 mA, then the membrane was blocked with (tris-buffered saline) TBS buffer (5% bovine serum albumin (BSA)) for 1 hr at room temperature. The membrane was exposed to the primary antibodies overnight in cold room in TBS buffer (1% BSA). The membrane was then washed with TBS-Tween for 3×10 min at R/T, incubated with secondary antibodies in TBS buffer (1% BSA) for 1 hr at RT. The membrane was washed with TBS-Tween for 3×10 min at R/T and the imaging was acquired with Li—COR imaging system.

[2] = tested on: MV4-11 (human AML cancer cells); experiment: In vivo tumor growth inhibition, MV4-11 xenograft; set-up: species or system BALB/c nude mice
Procedure: MV4-11 (human AML cancer cells): Female 6-8 weeks old BALB/c nude mice were inoculated subcutaneously on the right flank with MV4-11 tumor cells (1×10^7) in RPMI 1640 without serum for tumor development. The treatments were started when the mean tumor size reached approximately 150 mm^3 at Day 13 after cell inoculation and continued until end of study by twice daily oral gavage dosing of HC-7366 at listed doses (vehicle, 0.3 mg/kg HC-7366, 1 mg/kg HC-7366, 3 mg/kg HC-7366, 10 mg/kg HC-7366, or 30 mg/kg HC-7366, FIG. 20). For venetoclax combination study, venetoclax was dissolved in 0.5% carboxymethylcellulose (CMC) and co-administered at 50 mg/kg dose once daily (see Example 8).
[formula] • 2.2.2 Tumor Measurements: The measurement of tumor size was conducted three times weekly with a caliper and recorded. The tumor volume (mm^3) was estimated using the formula: TV=a×b^2/2, where “a” and “b” is long and short diameters of a tumor, respectively. Tumor volume was calculated using the formula [tumor volume (mm^3)=π/6×length×width^2).
Regression was calculated using the formula=100×ΔT/T initial, if ΔT<0. Animals with 0 mm^3 tumor volume (no measurable tumor) for three consecutive measurements were considered as complete responders and animals with 50% tumor regressions were partial responders.
MV4-11 tumors were collected at the end of the venetoclax combination study described in Example 6. Tumor growth curves are provided of MV4-11 tumors treated with single agent HC-7366 and venetoclax or combination (FIG. 43).

FaDu cells = experiment: CTG viability assay, FaDu sgControl and sgGCN2 cells; assay type: cell-based, human; conditions: 72 or 96 hr
Procedure: FaDu cells were obtained from ATCC (#HTB-43) and were cultured in Eagle's Minimum Essential Medium, Catalog No. 30-2003 at 37° C. and 5% CO2. FaDu GCN2 CRISPR knockout cells (sgGCN2) or control cells (sgControl) were generated. For viability experiments, cells were plated in 384-well cell culture plates and incubated overnight. Compounds were diluted in 10 concentrations by 3-fold dilution in 384pp-plate using TECAN EVO200 to a final concentration ranging from […]. The plates were incubated for 72 or 96 hr and viability was assessed by adding CellTiter-Glo® 2.0 Assay according to the manufacturer's protocol (Promega, G9243) to each well. The plates were then incubated at RT for 30 min. The luminescent signals were read by Envision (PerkinElmer) plate reader and analyzed by Prism

[3] = tested on: newly synthesized proteins; experiment: Puromycin labeling of newly synthesized proteins; assay type: cell-based; conditions: 100 nM
[4] = tested on: upstream regulators of differentially expressed genes in DLD-1 tumors; experiment: RNAseq analysis of DLD-1 tumors; assay type: in vivo, mice
Procedure: DLD-1 (human colorectal cancer cells): Female 6-8 weeks old BALB/c nude mice were inoculated subcutaneously on the right flank with DLD-1 tumor cells (5×10^6) in 0.1 ml of RPMI1640 medium without serum for tumor development. The treatments were started when the mean tumor size reached approximately 195 mm^3 at Day 7 post inoculation and continued until end of study by twice daily oral gavage dosing of HC-7366 at listed doses (vehicle, 0.3 mg/kg HC-7366, 1 mg/kg HC-7366, 3 mg/kg HC-7366, 10 mg/kg HC-7366, or 30 mg/kg HC-7366, FIG. 10). For the time course study, tumors were harvested at Days 4, 7 and 14. Tumors were then used for IHC and RNAseq experiments (see Example 21).
DLD-1 tumor bearing mice were treated with HC-7366 at 0.3, 1, 3, 10 and 30 mg/kg twice a day for 14 days. Tumors were harvested for RNAseq analysis at Day 4, Day 7 and Day 14 (FIG. 128).

For `CNC(=O)c1ncn2cc(-c3c(F)ccc(NS(=O)(=O)c4cc(Cl)cnc4OC)c3F)ncc12` [HC-7366, 6-(3-((5-chloro-2-methoxypyridine)-3-sulfonamido)-2,6-difluorophenyl)-N-methylimidazo[1,5-a]pyrazine-1-carboxamide], the “ATF4 activity, cells treated with HC-7366 and Halofuginone” value (ATF4) was “GCN2 inhibitory effect”, the “GCN2 pathway, HC-7366 by itself” value ([1]; 0 to 10 μM) was “activation of GCN2 pathway” and the “halofuginone induced p-GCN2 and ATF4” value ([1]; 100 nM Halofuginone) was “inhibited”. For the same compound, the TGI ([2]; 30 mg/kg twice daily oral) was 45%, the TGI ([2]; venetoclax combination study, HC-7366 as a single agent, dose not stated) was 34% and the viability (FaDu cells; FaDu control cells) was “potently reduced viability”. For the same compound, the viability response (FaDu cells; GCN2 CRISPR knockout cells) was “reversed”, the “puromycin labeling of newly synthesized proteins” value [3] was “potently reduced” and the “HIF1α, SMAD4 and E2F1 signature” value ([4]; 0.3-30 mg/kg twice a day) was “reduction”. The “ATF4 (upstream regulator of differentially expressed genes)” value ([4]; all doses (0.3-30 mg/kg twice a day)) was “significantly induced”.
